The test system of experiment [1] is 43 cancer cell lines and one normal cell line. Description: In vitro cell viability assay (intracellular ATP, 72 hour). In kind it is cell-based. The settings on record: 10 μM.
In the next experiment the target is PRMT3 (h) (Homo sapiens, UniProt O60678). Description: Epigenetic enzyme assay, Methyltransferases (MTs). In kind it is biochemical. The settings on record: read-out: Reference IC50.

The structures appear in SMILES notation.

Usually IC50 stands for the concentration needed to halve the response being measured.

Chain of PRMT3 (h) (O60678 whole entry): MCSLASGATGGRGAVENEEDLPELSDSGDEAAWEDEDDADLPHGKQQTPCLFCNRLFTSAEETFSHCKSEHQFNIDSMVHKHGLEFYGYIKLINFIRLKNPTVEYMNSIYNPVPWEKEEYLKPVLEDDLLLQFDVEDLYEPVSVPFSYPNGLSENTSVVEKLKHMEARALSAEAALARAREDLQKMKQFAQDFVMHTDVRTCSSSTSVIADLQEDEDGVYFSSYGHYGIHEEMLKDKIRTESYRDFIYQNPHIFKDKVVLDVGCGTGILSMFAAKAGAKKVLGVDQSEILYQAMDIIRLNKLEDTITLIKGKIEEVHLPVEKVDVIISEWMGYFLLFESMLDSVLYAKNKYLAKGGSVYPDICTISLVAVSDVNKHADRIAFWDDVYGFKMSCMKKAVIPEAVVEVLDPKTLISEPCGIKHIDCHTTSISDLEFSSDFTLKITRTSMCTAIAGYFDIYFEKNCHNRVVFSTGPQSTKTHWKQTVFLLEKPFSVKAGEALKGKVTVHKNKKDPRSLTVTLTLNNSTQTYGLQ

For `CC(C)=CCC[C@H](C)[C@@H]1CC[C@@H](C)c2c1cc(C)c(O)c2O` [Compound 4, 7,8-dihydroxyserrulat-14-ene], the “reduction in cell viability” value in experiment [1] (Ramos, H33HJ-JA1, HL-60 (TB), MOLT-4, MV-411, SK-N-MC) was −82 to −94%. Moreover, the “% Cell growth” value in experiment [1] (4T1 (Breast Cancer)) is recorded as 26%; in experiment [1] (A375 (Skin)), 65%; in experiment [1] (A549/ATCC (Non-Small Cell Lung Cancer)), 93%; in experiment [1] (A-431 (Skin)), 107%; in experiment [1] (A-498 (Kidney Cancer)), 89%; in experiment [1] (ACHN (Kidney Cancer)), 105%. Moreover, the “% Cell growth” value in experiment [1] (B16-F0 (Melanoma)) is listed as 56%; in experiment [1] (BT474 (Breast Cancer)), 64%; in experiment [1] (CT26.WT (Colon Cancer)), 33%; in experiment [1] (DLD-1 (Colon Cancer)) it was 68%; in experiment [1] (H33HJ-JA1 (Lymphoma)) it was −87%; in experiment [1] (HC-4 (Liver Cancer)), 91%. The “% Cell growth” value in experiment [1] (HCT-15 (Colon Cancer)) stood at 69%; in experiment [1] (HCT-116 (Colon Cancer)), 64%; in experiment [1] (HT-29 (Colon Cancer)) it was 91%; in experiment [1] (Hep3B (Liver Cancer)), 93%; in experiment [1] (HepG2 (Liver Cancer)), 90%; in experiment [1] (K-562 (Leukemia)), 60%. Moreover, the “% Cell growth” value in experiment [1] (KATO III (Stomach)) amounted to 83%; in experiment [1] (LL/2 (Non-Small Cell Lung Cancer)), 98%; in experiment [1] (LNCaP (Prostrate Cancer)), 56%; in experiment [1] (MCF7 (Breast Cancer)) it was 77%; in experiment [1] (MCF-7 AdrR (Breast Cancer)), 77%; in experiment [1] (MDA-MB-231 (Breast Cancer)), 84%. The “% Cell growth” value in experiment [1] (MDA-MB-468 (Breast Cancer)) is on record as 52%; in experiment [1] (MES-SA (Uterus)), 68%; in experiment [1] (MIA PaCa-2 (Pancreas)), 92%; in experiment [1] (MOLT-4 (Leukemia)) it was −93%; in experiment [1] (MV-411 (Leukemia)), −94%; in experiment [1] (NCI-H460 (Non-Small Cell Lung Cancer)), 93%. Besides, the “% Cell growth” value in experiment [1] (OVCAR-3 (Ovarian Cancer)) is recorded as 60%; in experiment [1] (PANC-1 (Pancreas)) it was 82%; in experiment [1] (PC-6 (Non-Small Cell Lung Cancer)) it was 4%; in experiment [1] (Ramos (Lymphoma)), −82%; in experiment [1] (SK-MEL-5 (Melanoma)) it was 88%; in experiment [1] (SK-N-MC (Brain)) it was −92%. In addition, the “% Cell growth” value came to 74% in experiment [1] (SK-OV-3 (Ovarian Cancer)); 74% in experiment [1] (SW-620 (Colon Cancer)); 47% in experiment [1] (T-47D (Breast Cancer)); 20% in experiment [1] (U937 (Lymphoma)); 81% in experiment [1] (U-87 MG (Brain)).

With `Nc1ncnc2c1ncn2[C@@H]1O[C@H](CSCC[C@H](N)C(=O)O)[C@@H](O)[C@H]1O` [SAH], the IC50 at PRMT3 (h) was 860 nM.

For the origin of these results see patent publication US11331299B2, “Medicinal use of serrulatane diterpenes” (The University of Sydney, priority 2016, dated 2022).
